“Also recorded” adds a separate entry of the source. Ends that are not written are not given here.
Tests used:
[1] = system: Listeria monocytogenes NRRLB 33038; assay: Deferred antagonism assay; format: cell-based; conditions: nisin strain; L. monocytogenes NRRLB 33038
Description: (§1) Deferred antagonism assays were performed by replicating strains on GM17 or GM17 x-gal agar plates and allowing them to grow overnight before overlaying with either GM17/BHI/TS/MH agar (0.75% w/v agar) seeded with the appropriate indicator strain. Zone size was calculated as the diameter of the zone of clearing minus the diameter of bacterial growth (5 mm) For higher throughput screening of N20PXX, XM21VX, XXK22T and XXX banks deferred antagonism assays were performed by replicating strains using a 96 pin replicator (Boekel) or spotting 5 μl of a fresh overnight culture on GM17 agar plates and allowing them to grow overnight. […] Additional sets of indicators were employed to further assess/reassess the bioactivity of a number of strains. […] For well-diffusion assays molten agar was cooled to 48° C. and seeded with the appropriate indicator strain. The inoculated medium was rapidly transferred into sterile Petri plates in 50 ml volumes, allowed to solidify and dried. Wells (4.6 mm in diameter) were then made in the seeded plates. Purified nisin and mutant nisins were resuspended in 0.005% acetic acid, serially diluted, 50 μl volumes were dispensed into the aforementioned wells and the plates incubated at 37° C. overnight. Bioactivity was expressed as arbitrary units/ml (AU/ml) and calculated as the reciprocal of the highest dilution that gave a definite zone multiplied by the conversion factor (i.e. 20 when 50 μl was used) (Ryan et al., 1996).

[2] = system: Listeria monocytogenes SLCC 4949; assay: Deferred antagonism assay; format: cell-based; conditions: nisin strain; L. monocytogenes SLCC 4949
Description: as §1

[3] = system: Listeria monocytogenes 33007; assay: Deferred antagonism assay; format: cell-based; conditions: nisin strain; L. monocytogenes 33007
Description: as §1

[4] = system: Listeria monocytogenes CD83; assay: Deferred antagonism assay; format: cell-based; conditions: nisin strain; L. monocytogenes CD83
Description: as §1

[5] = system: Listeria monocytogenes 33423; assay: Deferred antagonism assay; format: cell-based; conditions: nisin strain; L. monocytogenes 33423
Description: as §1

[6] = system: Listeria monocytogenes 33037; assay: Deferred antagonism assay; format: cell-based; conditions: nisin strain; L. monocytogenes 33037
Description: as §1

[7] = system: Listeria innocua FH2117; assay: Deferred antagonism assay; format: cell-based; conditions: nisin strain
Description: as §1

[8] = system: Listeria monocytogenes 33176; assay: Deferred antagonism assay; format: cell-based; conditions: nisin strain; L. monocytogenes 33176
Description: as §1

[9] = system: Listeria monocytogenes 33411; assay: Deferred antagonism assay; format: cell-based; conditions: nisin strain; L. monocytogenes 33411
Description: as §1

[10] = system: Listeria monocytogenes LO28; assay: Deferred antagonism assay; format: cell-based; conditions: nisin strain; L. monocytogenes LO28
Description: as §1

[11] = system: Listeria monocytogenes 33013; assay: Deferred antagonism assay; format: cell-based; conditions: nisin strain; L. monocytogenes 33013
Description: as §1

[12] = system: Listeria monocytogenes F2365; assay: Deferred antagonism assay; format: cell-based; conditions: nisin strain; L. monocytogenes F2365
Description: as §1

[13] = system: Listeria monocytogenes 33090; assay: Deferred antagonism assay; format: cell-based; conditions: nisin strain; L. monocytogenes 33090
Description: as §1

[14] = system: Listeria monocytogenes CD1038; assay: Deferred antagonism assay; format: cell-based; conditions: nisin strain; L. monocytogenes CD1038
Description: as §1

[15] = system: Listeria monocytogenes 33186; assay: Deferred antagonism assay; format: cell-based; conditions: nisin strain; L. monocytogenes 33186
Description: as §1

[16] = system: Listeria monocytogenes 33077; assay: Deferred antagonism assay; format: cell-based; conditions: nisin strain; L. monocytogenes 33077
Description: as §1

[17] = system: Listeria monocytogenes 33225; assay: Deferred antagonism assay; format: cell-based; conditions: nisin strain; L. monocytogenes 33225
Description: as §1

[18] = system: Listeria monocytogenes SLCC 6793; assay: Deferred antagonism assay; format: cell-based; conditions: nisin strain; L. monocytogenes SLCC 6793
Description: as §1

[19] = system: Listeria monocytogenes 33116; assay: Deferred antagonism assay; format: cell-based; conditions: nisin strain; L. monocytogenes 33116
Description: as §1

[20] = system: L. plantarum CBC6; assay: Deferred antagonism assay; format: cell-based, Lactobacillus plantarum; set-up: key: + = Enhanced bioactivity relative to control; − = Bioactivity equal to or less than control; NA = no activity evident; conditions: producing strain
Method in brief: (§2)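 Producer strains replicated on GM17 or GM17 x-gal agar, grown overnight, then overlaid with 0.75% agar seeded with indicator strain. Zone size = diameter of clearing minus 5 mm growth diameter. Purified nisins tested by well diffusion at 37° C overnight; activity in AU/ml from reciprocal of highest active dilution × 20.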

[21] = system: C. sporogenes CBC5; assay: Deferred antagonism assay; format: cell-based, Clostridium sporogenes; set-up: key: + = Enhanced bioactivity relative to control; − = Bioactivity equal to or less than control; NA = no activity evident; conditions: producing strain
[22] = system: 30 L. monocytogenes and 3 L. innocua strains; assay: Deferred antagonism assay, collection of Listeria strains; format: cell-based; conditions: of 30 L. monocytogenes and 3 L. innocua strains
Description: as §1

[23] = system: indicator strains; assay: Deferred antagonism assays, various indicator strains (summary); format: cell-based; conditions: relative to nisin A-producing control; value = strains listed
Method in brief: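 Producer strains were replicated on GM17 or GM17 x-gal agar, grown overnight, then overlaid with GM17, BHI, TS or MH soft agar (0.75% w/v) seeded with the indicator strain. Zone size was taken as the clearing diameter minus the diameter of bacterial growth (5 mm).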

[24] = system: L. lactis CBC8; assay: Deferred antagonism assay; format: cell-based; set-up: key: + = Enhanced bioactivity relative to control; − = Bioactivity equal to or less than control; NA = no activity evident; conditions: producing strain
Method in brief: as §2

[25] = system: L. lactis CBC7; assay: Deferred antagonism assay; format: cell-based; set-up: key: + = Enhanced bioactivity relative to control; − = Bioactivity equal to or less than control; NA = no activity evident; conditions: producing strain
Method in brief: as §2

Substance | Activity score (zone) [1] | Activity score (zone) [2] | Activity score (zone) [3] | Activity score (zone) [4] | Activity score (zone) [5] | Activity score (zone) [6] | Activity score (zone) [7] | Activity score (zone) [8] | Activity score (zone) [9] | Activity score (zone) [10] | Activity score (zone) [11] | Activity score (zone) [12] | Activity score (zone) [13] | Activity score (zone) [14] | Activity score (zone) [15] | Activity score (zone) [16] | Activity score (zone) [17] | Activity score (zone) [18] | Activity score (zone) [19] | Bioactivity relative to control [20] | also measured
NisinA M21S (ITSISLCTPGCKTGALMGCNSKTATCHCSIHVSK; not fully specified; also: lantibiotic nisin: dehydrated residues and thioether rings not placed; UniProt P13068 24-57, looked up, variant M21S) [nisin A derivative, hinge substitution M21S] | ++ (++, 6-10 mm zone) | + (+, 1-5 mm zone) | ++ (++, 6-10 mm zone) | + (+, 1-5 mm zone) | + (+, 1-5 mm zone) | ++ (++, 6-10 mm zone) | + (+, 1-5 mm zone) | ++ (++, 6-10 mm zone) | ++ (++, 6-10 mm zone) | +++ (+++, <10 mm zone) | + (+, 1-5 mm zone) | ++ (++, 6-10 mm zone) | + (+, 1-5 mm zone) | ++ (++, 6-10 mm zone) | + (+, 1-5 mm zone) | ++ (++, 6-10 mm zone) | ++ (++, 6-10 mm zone) | +++ (+++, <10 mm zone) | ++ (++, 6-10 mm zone) | − | Bioactivity relative to control [21]: +; number of strains with enhanced bioactivity (relative to the control) [22]: 26; number of strains with equal levels of bioactivity [22]: 7; Strain(s) against which the derivative (producing strain) displays enhanced bioactivity [23]: L. monocytogenes CBC2 , CBC3, Staph. aureus CBC4, C. sporogenes CBC5 and L. lactis CBC8; also recorded: L. monocytogenes CBC2 , CBC3, S. aureus CBC4, C. sporogenes CBC5, L. lactis CBC8 and an additional 23 L. monocytogenes strains and 3 L. innocua; Bioactivity relative to control [24]: +; Bioactivity relative to control [25]: −
NisinA M21I (ITSISLCTPGCKTGALMGCNIKTATCHCSIHVSK; not fully specified; also: lantibiotic: lanthionine rings and dehydro residues not placed; UniProt P13068 24-57, looked up, variant M21I) [nisin A derivative, hinge substitution M21I] | + (+, 1-5 mm zone) | + (+, 1-5 mm zone) | ++ (++, 6-10 mm zone) | + (+, 1-5 mm zone) | + (+, 1-5 mm zone) | ++ (++, 6-10 mm zone) | + (+, 1-5 mm zone) | + (+, 1-5 mm zone) | + (+, 1-5 mm zone) | ++ (++, 6-10 mm zone) | + (+, 1-5 mm zone) | + (+, 1-5 mm zone) | + (+, 1-5 mm zone) | ++ (++, 6-10 mm zone) | + (+, 1-5 mm zone) | + (+, 1-5 mm zone) | + (+, 1-5 mm zone) | +++ (+++, <10 mm zone) | ++ (++, 6-10 mm zone) | − | Bioactivity relative to control [21]: +; number of strains with enhanced bioactivity (relative to the control) [22]: 17; number of strains with equal levels of bioactivity [22]: 15; number of strains with reduced activity [22]: 1; Strain(s) against which the derivative (producing strain) displays enhanced bioactivity [23]: L. momocytogenes CBC2, Staph. aureus CBC4, C. sporogenes CBC5, L. lactis CBC7 and CBC8; also recorded: L. monocytogenes CBC2, S. aureus CBC4, C. sporogenes CBC5, L. lactis CBC7 and an additional 15 L. monocytogenes and 2 L. innocua; Bioactivity relative to control [24]: +; Bioactivity relative to control [25]: +
NisinA K22A (ITSISLCTPGCKTGALMGCNMATATCHCSIHVSK; not fully specified; also: lantibiotic: lanthionine rings and dehydro residues not placed; UniProt P13068 24-57, looked up, variant K22A) [nisin A derivative, hinge substitution K22A] | + (+, 1-5 mm zone) | + (+, 1-5 mm zone) | + (+, 1-5 mm zone) | + (+, 1-5 mm zone) | + (+, 1-5 mm zone) | + (+, 1-5 mm zone) | + (+, 1-5 mm zone) | + (+, 1-5 mm zone) | + (+, 1-5 mm zone) | + (+, 1-5 mm zone) | + (+, 1-5 mm zone) | + (+, 1-5 mm zone) | + (+, 1-5 mm zone) | + (+, 1-5 mm zone) | + (+, 1-5 mm zone) | + (+, 1-5 mm zone) | + (+, 1-5 mm zone) | ++ (++, 6-10 mm zone) | + (+, 1-5 mm zone) | − | Bioactivity relative to control [21]: −; number of strains with enhanced bioactivity (relative to the control) [22]: 16; number of strains with equal levels of bioactivity [22]: 17; Strain(s) against which the derivative (producing strain) displays enhanced bioactivity [23]: L. monocytogenes K22A and L. lactis CBC8; also recorded: L. lactis CBC8 and L. monocytogenes CBC2 , and an additional 13 L. monocytogenes and 3 L. innocua; also recorded: additional 13 L. monocytogenes and 3 L. innocua, S. aureus; also recorded: ST528 and DPC5425, Strep. agalactiae ATCC 13813; Bioactivity relative to control [24]: +; Bioactivity relative to control [25]: −
